According to patent publication US9765018B2, “IDO inhibitors” (BRISTOL-MYERS SQUIBB COMPANY, priority 2013, dated 2017):

Target: IDO (Homo sapiens (Human), UniProt P14902)
Assay: Kynurenine assay in IFN-γ-stimulated Hela cells
Format: cell-based
Settings: 20 h, read-out: Hela Kyurenine (IC50)
Method: Reagents: Hela cells (ATCC, CCL-2)
IFNg (R&D, 28-IF-100)—resuspend at 10 ug/mL in PBS with 0.1% BSA 30% TCA
Ehrlich reagent (2% w/v p-dimethylaminobenzaldehyde in glacial acetic acid)
Cell Lines and Culture Conditions
Hela cancer cell lines were acquired from the American Type Culture Collection. Cells were maintained in phenol red free-RPMI1640 medium containing high glucose and L-glutamine (Invitrogen) supplemented with 10% fetal bovine serum (FBS; Invitrogen). Cell cultures were incubated at 37° C., 5% CO2, and 100% humidity.
Cell Treatment and Kynurenine Assay
Hela cells were seeded on 96-well plates (40,000 cells per well) and allowed to adhere for 5-6 hours. Cells were then treated with vehicle (DMSO) or with IDO inhibitor at a top dose of 30 μM (3-fold dilution all the way down to 1.5 nM). A final concentration of 100 ng/mL of human recombinant IFN-γ (R&D, 28-IF-100) was immediately added to the cells to stimulate IDO expression. Treated cells were then incubated for 20 hours at 37° C. At the end of the 20 h incubation, reactions were terminated by the addition of 30% TCA to each well. Plates were incubated for 30 minutes at 50° C. to hydrolyze N-formylkynurenine to kynurenine. Cells were centrifuged 10 minutes at 2400 rpm. 100 ul of supernatants were transferred to new 96 flat well plates and mixed with 100 ul Ehrlich reagent. The resulting solution was incubated 10 minutes at RT. Absorbance at 490 nm was read using Spectra Max 384 (Molecular Devices).

IDO, sequence (P14902 whole entry): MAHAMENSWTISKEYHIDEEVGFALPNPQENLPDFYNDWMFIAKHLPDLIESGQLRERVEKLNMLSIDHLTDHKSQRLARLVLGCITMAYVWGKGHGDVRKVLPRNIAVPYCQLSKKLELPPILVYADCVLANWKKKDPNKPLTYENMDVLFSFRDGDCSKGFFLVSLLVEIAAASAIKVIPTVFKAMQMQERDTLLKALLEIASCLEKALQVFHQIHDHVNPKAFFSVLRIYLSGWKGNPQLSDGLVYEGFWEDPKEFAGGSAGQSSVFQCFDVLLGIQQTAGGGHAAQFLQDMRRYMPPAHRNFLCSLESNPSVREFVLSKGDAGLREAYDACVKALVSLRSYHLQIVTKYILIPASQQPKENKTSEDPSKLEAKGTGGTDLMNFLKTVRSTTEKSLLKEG

| Compound | IC50 [nM] |
| --- | --- |
| O=C(Nc1ccccc1Cl)Nc1cc(-c2ccc(C(=O)O)c(Cl)c2)ccc1Oc1ccccc1C(F)(F)F [Example 203, 3-chloro-3′-(3-(2-chlorophenyl)ureido)-4′-(2-(trifluoromethyl)phenoxy)biphenyl-4-carboxylic acid] | 500 |
| Cc1ccc(NC(=O)Nc2cc(-c3cccc(C(=O)O)c3)ccc2Oc2ccccc2)cc1 [Example 235, 4′-phenoxy-3′-(3-p-tolylureido) biphenyl-3-carboxylic acid] | 1430 |
| Cc1ccccc1NC(=O)Nc1cc(-c2cccc(C(=O)O)c2)ccc1Oc1cccc(Cl)c1 [Example 244, 4′-(3-chlorophenoxy)-3′-(3-o-tolylureido) biphenyl-3-carboxylic acid] | 840 |
| Cc1ccc(NC(=O)Nc2cc(-c3ccccc3-c3nnn[nH]3)ccc2Oc2ccccc2C(C)(C)C)cc1 [Example 4, 1-(4-(2-tert-Butylphenoxy)-2′-(1H-tetrazol-5-yl)biphenyl-3-yl)-3-p-tolylurea] | 30 |
| CC(C)(C)c1ccccc1Oc1ccc(-c2cc(Cl)cc(C(=O)O)c2)cc1NC(=O)Nc1ccc(C(F)(F)F)cc1 [Example 241, 4′-(2-tert-butylphenoxy)-5-chloro-3′-(3-(4-(trifluoromethyl)phenyl)ureido) biphenyl-3-carboxylic acid] | 1040 |
| Cc1ccccc1NC(=O)Nc1cc(-c2ccc(C(=O)O)cc2)ccc1Oc1ccccc1C(C)(C)C [Example 200, 4′-(2-tert-butylphenoxy)-3′-- (3-o-tolylureido) biphenyl-4-carboxylic acid] | 1520 |
| O=C(Nc1ccccc1)Nc1cc(-c2ccccc2-c2nnn[nH]2)ccc1Oc1cccc2c1CCCC2 [Example 184, 1-phenyl-3-(4-(5,6,7,8-tetrahydronaphthalen-1-yloxy)-2′-(1H-tetrazol-5-yl)biphenyl-3-yl)urea] | 1100 |
| 4′-(2-(tert-butyl)phenoxy)-3′-(3-(4-chlorophenyl)ureido)-4-methoxy-[1,1′-biphenyl]-3-carboxylic acid [Example 106] | 470 |
| O=C(Nc1ccccc1Cl)Nc1cc(-c2cccc(C(=O)O)c2)ccc1Oc1ccccc1C(F)(F)F [Example 259, 3′-(3-(2-chlorophenyl)ureido)-4'-(2-(trifluoromethyl)phenoxy) biphenyl-3-carboxylic acid] | 2210 |
| Cc1cccc(NC(=O)Nc2cc(-c3cccc(C(=O)O)c3)ccc2Oc2ccc(Cl)cc2)c1 [Example 249, 4′-(4-chlorophenoxy)-3′-(3-m-tolylureido) biphenyl-3-carboxylic acid] | 2550 |
| CC(C)(C)c1ccccc1Oc1ccc(-c2cccc(C(=O)O)c2)cc1NC(=O)NC1CCCCC1 [Example 221, 4′-(2-tert-butylphenoxy)-3′-(3-cyclohexylureido) biphenyl-3-carboxylic acid] | 1010 |
| O=C(Nc1ccccc1Cl)Nc1cc(-c2cccc(C(=O)O)c2)ccc1Oc1ccc(Cl)cc1 [Example 242, 4′-(4-chlorophenoxy)-3′-(3-(2-chlorophenyl)ureido)biphenyl-3-carboxylic acid] | 1150 |
| Cc1cccc(NC(=O)Nc2cc(-c3cc(Cl)cc(C(=O)O)c3)ccc2Oc2ccccc2C(C)(C)C)c1 [Example 239, 4′-(2-tert-butylphenoxy)-5-chloro-3′-(3-m-tolylureido) biphenyl-3-carboxylic acid] | 1020 |
| CC(C)(C)c1ccccc1Oc1ccc(-c2ccc(C(=O)O)cc2)cc1NC(=O)Nc1ccc(C(F)(F)F)cc1 [Example 209, 4′-(2-tert-butylphenoxy)-3′-(3-(4-(trifluoromethyl)phenyl)ureido) biphenyl-4-carboxylic acid] | 1740 |
| CC(C)(C)c1ccccc1Oc1ccc(-c2cc(Cl)cc(C(=O)O)c2)cc1NC(=O)Nc1ccc(C#N)cc1 [Example 240, 4′-(2-tert-butylphenoxy)-5-chloro-3′-(3-(4-cyanophenyl)ureido)biphenyl-3-carboxylic acid] | 540 |

Results, then the compound that gave them:

| IC50 [nM] | Compound |
| --- | --- |
| 370 | COc1ccc(-c2ccc(Oc3ccccc3C(C)(C)C)c(NC(=O)Nc3ccc(C)cc3)c2)cc1C(=O)O [Example 255, 4′-(2-tert-butylphenoxy)-4-methoxy-3′-(3-p-tolylureido) biphenyl-3-carboxylic acid] |
| 430 | COc1ccc(-c2ccc(Oc3ccccc3C(C)(C)C)c(NC(=O)Nc3ccc(C)cc3)c2)cc1C(=O)NS(C)(=O)=O [Example 41, 4′-(2-tert-butylphenoxy)-4-methoxy-N-(methylsulfonyl)-3′-(3-p-tolylureido)biphenyl-3-carboxamide] |
| 1010 | COc1ccc(-c2ccc(Oc3ccccc3C(C)(C)C)c(NC(=O)Nc3ccc(N(C)C)cc3)c2)cc1C(=O)O [Example 101, 4′-(2-(tert-butyl)phenoxy)-3′-(3-(4-(dimethylamino)phenyl)ureido)-4-methoxy-[1,1′-biphenyl]-3-carboxylic acid] |
| 780 | C#CCNC(=O)Nc1cc(-c2ccc(OC)c(C(=O)O)c2)ccc1Oc1ccccc1C(C)(C)C [Example 119, 4′-(2-tert-butylphenoxy)-4-methoxy-3′-(3-prop-2-ynylureido)biphenyl-3-carboxylic acid] |
| 220 | COc1ccc(-c2ccc(Oc3ccccc3C(C)(C)C)c(NC(=O)Nc3ccc4c(c3)CCC4)c2)cc1C(=O)O [Example 102, 4′-(2-(tert-butyl)phenoxy)-3′-(3-(2,3-dihydro-1H-inden-5-yl)ureido)-4-methoxy-[1,1′-biphenyl]-3-carboxylic acid] |
| 1230 | CCc1ccccc1Oc1ccc(-c2ccc(OC)c(C(=O)O)c2)cc1NC(=O)Nc1ccc(C(F)(F)F)cc1 [Example 48, 4′-(2-ethylphenoxy)-4-methoxy-3′-(3-(4-(trifluoromethyl)phenyl)ureido)biphenyl-3-carboxylic acid] |
| 260 | CCCCNC(=O)Nc1cc(-c2ccc(OC)c(C(=O)O)c2)ccc1Oc1ccccc1C(C)(C)C [Example 90, 4′-(2-(tert-butyl)phenoxy)-3′-(3-(n-butyl)ureido)-4-methoxy-[1,1′-biphenyl]-3-carboxylic acid] |
| 340 | COc1ccc(-c2cnc(Oc3ccccc3C(C)(C)C)c(NC(=O)Nc3ccc(C)cc3)c2)cc1C(=O)O [Example 335] |
| 650 | Cc1ccc(NC(=O)Nc2cc(-c3ccc(C(=O)O)c(F)c3)ccc2Oc2ccccc2C(C)(C)C)cc1 [Example 218, 4′-(2-tert-butylphenoxy)-3-fluoro-3′-(3-p-tolylureido) biphenyl-4-carboxylic acid] |
| 1630 | COc1cc(-c2ccc(Oc3ccccc3C(C)(C)C)c(NC(=O)Nc3ccccc3C)c2)ccc1C(=O)O [Example 211, 4′-(2-tert-butylphenoxy)-3-methoxy-3′-(3-o-tolylureido) biphenyl-4-carboxylic acid] |
| 380 | COc1ccc(-c2ccc(Oc3ccccc3C)c(NC(=O)Nc3ccccc3C)c2)cc1C(=O)O [Example 72, 4-methoxy-4′-(o-tolyloxy)-3′-(3-o-tolylureido)biphenyl-3-carboxylic acid] |
| 80 | COc1ccc(-c2ccc(Oc3ccccc3C(C)(C)C)c(NC(=O)Nc3ccccc3)c2)cc1C(=O)O [Example 78, 4′-(2-(tert-butyl)phenoxy)-4-methoxy-3′-(3-phenylureido)-[1,1′-biphenyl]-3-carboxylic acid] |
